From PubChem BioAssay (NCI)
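Each compound was tested at five concentrations against cells in 96-well plates for 48 hours. Abbreviation: GI50, concentration required for 50% inhibition of growth. Definition used: TGI = concentration required for complete inhibition of growth.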

Tests used:
Experiment in all cases: NCI anticancer screen, dose series, 48 h; in the data active means GI50 below about 0.43 µM; inactive means the rest
HCT-15 colon = test system: HCT-15 colon
HOP-62 NSCLC = test system: HOP-62 NSCLC
HS 578T breast = test system: HS 578T breast
M14 melanoma = test system: M14 melanoma
IGROV1 ovarian = test system: IGROV1 ovarian
EKVX NSCLC = test system: EKVX NSCLC
U251 CNS = test system: U251 CNS
HCC-2998 colon = test system: HCC-2998 colon
SNB-75 CNS = test system: SNB-75 CNS
LOX IMVI melanoma = test system: LOX IMVI melanoma
OVCAR-4 ovarian = test system: OVCAR-4 ovarian
MDA-MB-231 breast = test system: MDA-MB-231 breast
NCI-H522 lung = test system: NCI-H522 lung
SK-MEL-5 melanoma = test system: SK-MEL-5 melanoma
RPMI-8226 leukemia = test system: RPMI-8226 leukemia
ACHN renal = test system: ACHN renal
SK-MEL-2 melanoma = test system: SK-MEL-2 melanoma
SNB-19 CNS = test system: SNB-19 CNS
NCI-H460 lung = test system: NCI-H460 lung
RXF 393 renal = test system: RXF 393 renal
MCF7 breast = test system: MCF7 breast
SK-OV-3 ovarian = test system: SK-OV-3 ovarian
A498 renal = test system: A498 renal
NCI-H226 lung = test system: NCI-H226 lung
MDA-MB-435 = test system: MDA-MB-435
COLO 205 colon = test system: COLO 205 colon
UACC-257 melanoma = test system: UACC-257 melanoma
HOP-92 NSCLC = test system: HOP-92 NSCLC
HT29 colon = test system: HT29 colon
SF-268 CNS = test system: SF-268 CNS
T-47D breast = test system: T-47D breast
SW-620 colon = test system: SW-620 colon
OVCAR-8 ovarian = test system: OVCAR-8 ovarian
SN12C renal = test system: SN12C renal
HCT-116 colon = test system: HCT-116 colon
UACC-62 melanoma = test system: UACC-62 melanoma
NCI-H23 lung = test system: NCI-H23 lung
NCI/ADR-RES ovarian = test system: NCI/ADR-RES ovarian
A549 NSCLC = test system: A549 NSCLC
DU-145 prostate = test system: DU-145 prostate
MALME-3M melanoma = test system: MALME-3M melanoma
OVCAR-5 ovarian = test system: OVCAR-5 ovarian
786-0 renal = test system: 786-0 renal
KM12 colon = test system: KM12 colon
SF-539 CNS = test system: SF-539 CNS
CAKI-1 renal = test system: CAKI-1 renal
PC-3 prostate = test system: PC-3 prostate
UO-31 renal = test system: UO-31 renal
TK-10 renal = test system: TK-10 renal
OVCAR-3 ovarian = test system: OVCAR-3 ovarian
BT-549 breast = test system: BT-549 breast
SF-295 CNS = test system: SF-295 CNS
SK-MEL-28 melanoma = test system: SK-MEL-28 melanoma

O=[N+]([O-])c1cc(Br)cc2c1[nH]c1ccc(Br)cc12
77.9 µM: TGI (T-47D breast)
71.7 µM: TGI (SF-539 CNS)
45.9 µM: TGI (SF-268 CNS)
40.3 µM: TGI (NCI-H522 lung)
11.9 µM: TGI (CAKI-1 renal)
66.3 µM: TGI (MALME-3M melanoma)
36.5 µM: TGI (HOP-92 NSCLC)
20 µM: TGI (HS 578T breast)
8.48 µM: TGI (TK-10 renal)
66.6 µM: TGI (NCI-H460 lung)
21.5 µM: TGI (HCT-116 colon)
> 100 µM: TGI (HCT-15 colon) | TGI (M14 melanoma) | TGI (EKVX NSCLC) | TGI (HCC-2998 colon) | TGI (LOX IMVI melanoma) | TGI (MDA-MB-231 breast) | TGI (SK-MEL-5 melanoma) | TGI (RPMI-8226 leukemia) | TGI (MCF7 breast) | TGI (MDA-MB-435) | TGI (COLO 205 colon) | TGI (UACC-257 melanoma) | TGI (HT29 colon) | TGI (SW-620 colon) | TGI (OVCAR-8 ovarian) | TGI (SN12C renal) | TGI (UACC-62 melanoma) | TGI (NCI-H23 lung) | TGI (OVCAR-5 ovarian) | TGI (KM12 colon) | TGI (PC-3 prostate) | TGI (SK-MEL-28 melanoma)
10.4 µM: TGI (UO-31 renal)
5 µM: TGI (HOP-62 NSCLC)
8.47 µM: TGI (OVCAR-4 ovarian)
81.8 µM: TGI (A498 renal)
20.9 µM: TGI (RXF 393 renal)
76.6 µM: TGI (DU-145 prostate)
58 µM: TGI (BT-549 breast)
93.2 µM: TGI (U251 CNS)
14.8 µM: TGI (SNB-75 CNS)
19.9 µM: TGI (ACHN renal)
27.4 µM: TGI (786-0 renal)
inactive: GI50 (HCT-15 colon) 28 µM | GI50 (HOP-62 NSCLC) 2110 nM | GI50 (HS 578T breast) 2250 nM | GI50 (M14 melanoma) 14.6 µM | GI50 (IGROV1 ovarian) 2740 nM | GI50 (EKVX NSCLC) 3.19 µM | GI50 (U251 CNS) 14.8 µM | GI50 (HCC-2998 colon) 9.86 µM | GI50 (SNB-75 CNS) 2120 nM | GI50 (LOX IMVI melanoma) 4.9 µM | GI50 (OVCAR-4 ovarian) 2480 nM | GI50 (MDA-MB-231 breast) 2710 nM | GI50 (NCI-H522 lung) 3.09 µM | GI50 (SK-MEL-5 melanoma) 8.03 µM | GI50 (RPMI-8226 leukemia) 25.4 µM | GI50 (ACHN renal) 3.31 µM | GI50 (SK-MEL-2 melanoma) 6.22 µM | GI50 (SNB-19 CNS) 16.1 µM | GI50 (NCI-H460 lung) 4.66 µM | GI50 (RXF 393 renal) 5.04 µM | GI50 (MCF7 breast) 6.34 µM | GI50 (SK-OV-3 ovarian) 3.59 µM | GI50 (A498 renal) 6.86 µM | GI50 (NCI-H226 lung) 3.24 µM | GI50 (MDA-MB-435) 20.6 µM | GI50 (COLO 205 colon) 4.7 µM | GI50 (UACC-257 melanoma) 86 µM | GI50 (HOP-92 NSCLC) 7.85 µM | GI50 (HT29 colon) 4.03 µM | GI50 (SF-268 CNS) 10.2 µM | GI50 (T-47D breast) 6.76 µM | GI50 (SW-620 colon) 7.97 µM | GI50 (OVCAR-8 ovarian) 11.4 µM | GI50 (SN12C renal) 53.8 µM | GI50 (HCT-116 colon) 5 µM | GI50 (UACC-62 melanoma) 22.1 µM | GI50 (NCI-H23 lung) 8.56 µM | GI50 (NCI/ADR-RES ovarian) 6.09 µM | GI50 (A549 NSCLC) 6.11 µM | GI50 (DU-145 prostate) 6.17 µM | GI50 (MALME-3M melanoma) 10.8 µM | GI50 (OVCAR-5 ovarian) 15.5 µM | GI50 (786-0 renal) 5.47 µM | GI50 (KM12 colon) 13.3 µM | GI50 (SF-539 CNS) 12.2 µM | GI50 (CAKI-1 renal) 2230 nM | GI50 (PC-3 prostate) 10.2 µM | GI50 (UO-31 renal) 2080 nM | GI50 (TK-10 renal) 2460 nM | GI50 (OVCAR-3 ovarian) 2560 nM | GI50 (BT-549 breast) 18.7 µM | GI50 (SF-295 CNS) 2780 nM | GI50 (SK-MEL-28 melanoma) 39 µM
38.7 µM: TGI (IGROV1 ovarian)
21.9 µM: TGI (NCI-H226 lung)
45 µM: TGI (A549 NSCLC)
7.42 µM: TGI (OVCAR-3 ovarian)
9.35 µM: TGI (SF-295 CNS)
41.5 µM: TGI (SK-MEL-2 melanoma)
15.4 µM: TGI (SK-OV-3 ovarian)
62.7 µM: TGI (NCI/ADR-RES ovarian)
70.8 µM: TGI (SNB-19 CNS)
